Measured values from patent US7214690B2, “Tricyclic quinolinone and tricyclic quinoline androgen receptor modulator compounds and methods” (Ligand Pharmaceuticals Incorporated, priority 2001, dated 2007).
Where two headings read alike, the source gives them in different places.

Experiments:
human AR = biological target: T1, human AR (Homo sapiens, UniProt P10275); experiment: co-transfection assay, hAR in CV-1 cells (MTV-LUC reporter); format: cell-based; details: for AR Agonist CV-1 Cells Efficacy: agonist mode, luciferase production relative to DHT; for AR Agonist CV-1 Cells Efficacy / AR Antagonist CV-1 Cells Efficacy: hAR in CV-1 cells; for AR Antagonist CV-1 Cells Efficacy: antagonist mode, maximal inhibition of DHT-induced luciferase production
T1 construct: expressed in transfected cells; host or cells: CV-1 cells (African green monkey kidney fibroblasts)
T1 sequence (P10275 1-920): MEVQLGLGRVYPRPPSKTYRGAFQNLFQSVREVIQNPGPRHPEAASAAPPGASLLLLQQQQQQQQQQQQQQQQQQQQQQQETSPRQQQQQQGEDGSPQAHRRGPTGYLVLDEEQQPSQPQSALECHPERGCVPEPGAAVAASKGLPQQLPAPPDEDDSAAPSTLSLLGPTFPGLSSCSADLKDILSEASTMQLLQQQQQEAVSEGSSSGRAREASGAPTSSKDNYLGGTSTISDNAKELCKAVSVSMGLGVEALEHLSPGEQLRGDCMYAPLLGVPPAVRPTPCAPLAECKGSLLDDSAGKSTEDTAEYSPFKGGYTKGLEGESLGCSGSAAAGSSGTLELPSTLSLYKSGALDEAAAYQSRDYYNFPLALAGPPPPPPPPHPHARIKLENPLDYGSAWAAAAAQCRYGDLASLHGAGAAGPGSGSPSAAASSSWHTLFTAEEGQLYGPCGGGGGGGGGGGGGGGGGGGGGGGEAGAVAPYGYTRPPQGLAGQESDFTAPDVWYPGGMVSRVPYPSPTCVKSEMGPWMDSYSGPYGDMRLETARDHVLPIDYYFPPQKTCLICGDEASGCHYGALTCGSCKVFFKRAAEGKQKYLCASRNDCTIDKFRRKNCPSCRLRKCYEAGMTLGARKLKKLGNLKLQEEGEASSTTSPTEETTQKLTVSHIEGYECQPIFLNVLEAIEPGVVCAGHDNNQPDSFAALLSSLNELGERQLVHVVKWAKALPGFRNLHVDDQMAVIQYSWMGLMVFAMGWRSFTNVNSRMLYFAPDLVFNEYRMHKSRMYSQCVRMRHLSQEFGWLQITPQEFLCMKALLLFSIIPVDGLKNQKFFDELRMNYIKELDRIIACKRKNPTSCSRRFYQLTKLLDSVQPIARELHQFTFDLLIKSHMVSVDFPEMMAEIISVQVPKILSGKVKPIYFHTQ
Description: The co-transfection assay provides a method for identifying functional agonists and partial agonists that mimic, or antagonists that inhibit, the effect of native hormones and quantifying their activity for responsive IR proteins. In this regard, the co-transfection assay mimics an in vivo system in the laboratory. Importantly, activity in the co-transfection assay correlates very well with known in vivo activity, such that the co-transfection assay functions as a qualitative and quantitative predictor of a tested compounds in vivo pharmacology. , See e.g., T. Berger et al. 41 J. Steroid Biochem. Molec.
(§1) CV-1 cells (African green monkey kidney fibroblasts) were cultured in the presence of Dulbecco's Modified Eagle Medium (DMEM) supplemented with 10% charcoal resin-stripped fetal bovine serum (CH-FBS) then transferred to 96-well microtiter plates one day prior to transfection.
The reporter plasmid, MTV-LUC, contains the cDNA for firefly luciferase (LUC) under control of the mouse mammary tumor virus (MTV) long terminal repeat, a conditional promoter containing an androgen response element. See e.g., Berger et al. supra. In addition, pRS-β-Gal, coding for constitutive expression of E. coli β-galactosidase (β-Gal), was included as an internal control for evaluation of transfection efficiency and compound toxicity.
(§2) Three to four replicates were used for each sample.
(§3) After 40 hours, the cells were washed with PBS, lysed with a Triton X-100-based buffer and assayed for LUC and β-Gal activities using a luminometer or spectrophotometer, respectively. For each replicate, the normalized response (NR) was calculated as: LUC response/β-Gal rate • where β-Gal rate=β-Gal/β-Gal incubation time.

ER = biological target: T2, ER (Homo sapiens, UniProt P03372); experiment: co-transfection assay, ER; format: cell-based
T2 construct: expressed in transfected cells; host or cells: background cell substantially devoid of endogenous IRs (CV-1 described for the co-transfection assay)
T2 sequence (P03372 1-595): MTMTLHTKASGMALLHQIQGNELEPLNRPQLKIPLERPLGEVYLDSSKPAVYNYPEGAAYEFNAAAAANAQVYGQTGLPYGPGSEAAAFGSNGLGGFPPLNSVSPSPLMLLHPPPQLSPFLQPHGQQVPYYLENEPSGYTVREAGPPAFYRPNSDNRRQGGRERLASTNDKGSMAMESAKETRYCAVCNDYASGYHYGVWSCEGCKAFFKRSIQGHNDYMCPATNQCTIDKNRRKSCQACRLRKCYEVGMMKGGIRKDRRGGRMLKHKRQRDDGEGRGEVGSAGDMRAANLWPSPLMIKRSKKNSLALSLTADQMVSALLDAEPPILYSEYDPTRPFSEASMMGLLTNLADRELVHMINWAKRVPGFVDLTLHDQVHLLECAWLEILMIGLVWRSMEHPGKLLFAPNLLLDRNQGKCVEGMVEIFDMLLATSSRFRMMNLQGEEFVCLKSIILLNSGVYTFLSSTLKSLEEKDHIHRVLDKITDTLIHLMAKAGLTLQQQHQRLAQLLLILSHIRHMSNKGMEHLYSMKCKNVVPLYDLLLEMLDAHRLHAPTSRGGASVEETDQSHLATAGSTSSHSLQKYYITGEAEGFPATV
Protocol: as §1, §2, §3

CCCC1COc2c(ccc3[nH]c(=O)cc(C(F)(F)F)c23)N1 (racemic) [Compound 116, (±)-2,3,4,7-Tetrahydro-3-propyl-10-(trifluoromethyl)-8H-[1,4]oxazino[2,3-f]quinolin-8-one]
EC50 (human AR): > 10000 nM
AR Agonist CV-1 Cells Efficacy (human AR): na (not active (i.e. efficacy of <20 and potency of >10,000 nM for the cotransfection assay)
AR Antagonist CV-1 Cells Efficacy (human AR): 79%

CCCC1COc2c(ccc3[nH]c(=O)cc(C(F)(F)F)c23)N1C (racemic) [Compound 117, (±)-2,3,4,7-Tetrahydro-4-methyl-3-propyl-10-(trifluoromethyl)-8H-[1,4]oxazino[2,3-f]quinolin-8-one]
EC50 (human AR): > 10000 nM
AR Agonist CV-1 Cells Efficacy (human AR): na (not active (i.e. efficacy of <20 and potency of >10,000 nM for the cotransfection assay)
AR Antagonist CV-1 Cells Efficacy (human AR): 74%

C[C@@H]1Oc2c(ccc3[nH]c(=O)cc(C(F)(F)F)c23)N(CC(F)(F)F)[C@@H]1C (racemic) [Compound 136, (±)-(2S,3R)-2,3,4,7-Tetrahydro-2,3-dimethyl-4-(2,2,2-trifluoroethyl)-10-(trifluoromethyl)-8H-[1,4]oxazino[2,3-f]quinolin-8-one]
EC50 (human AR): 34 nM
AR Agonist CV-1 Cells Efficacy (human AR): 61%
AR Antagonist CV-1 Cells Efficacy (human AR): 24%

C[C@@H]1COc2c(ccc3[nH]c(=O)cc(C(F)(F)F)c23)N1C [Compound 102, (3R)-2,3,4,7-Tetrahydro-3,4-dimethyl-10-(trifluoromethyl)-8H-[1,4]oxazino[2,3-f]quinolin-8-one]
EC50 (human AR): > 10000 nM
AR Agonist CV-1 Cells Efficacy (human AR): na (not active (i.e. efficacy of <20 and potency of >10,000 nM for the cotransfection assay)
AR Antagonist CV-1 Cells Efficacy (human AR): 32%

C[C@@H]1COc2c(ccc3[nH]c(=O)cc(C(F)(F)F)c23)N1CC(F)(F)F [Compound 104, (3R)-2,3,4,7-Tetrahydro-3-methyl-4-(2,2,2-trifluoroethyl)-10-(trifluoromethyl)-8H-[1,4]oxazino[2,3-f]quinolin-8-one]
EC50 (human AR): 7 nM
AR Agonist CV-1 Cells Efficacy (human AR): 73%
AR Antagonist CV-1 Cells Efficacy (human AR): na (not active (i.e. efficacy of <20 and potency of >10,000 nM for the cotransfection assay)

CC[C@@H]1COc2c(ccc3[nH]c(=O)cc(C(F)(F)F)c23)N1 [Compound 107, (3R)-3-Ethyl-2,3,4,7-tetrahydro-10-(trifluoromethyl)-8H-[1,4]oxazino[2,3-f]quinolin-8-one]
EC50 (human AR): 301 nM
AR Agonist CV-1 Cells Efficacy (human AR): 17%
AR Antagonist CV-1 Cells Efficacy (human AR): 56%

CC[C@@H]1COc2c(ccc3[nH]c(=O)cc(C(F)(F)F)c23)N1CC [Compound 109, (3R)-3,4-Diethyl-2,3,4,7-tetrahydro-10-(trifluoromethyl)-8H-[1,4]oxazino[2,3-f]quinolin-8-one]
EC50 (human AR): 411 nM
AR Agonist CV-1 Cells Efficacy (human AR): 29%
AR Antagonist CV-1 Cells Efficacy (human AR): na (not active (i.e. efficacy of <20 and potency of >10,000 nM for the cotransfection assay)

CCN1c2ccc3[nH]c(=O)cc(C(F)(F)F)c3c2OC[C@H]1C(C)C [Compound 122, (3R)-4-Ethyl-2,3,4,7-tetrahydro-3-isopropyl-10-(trifluoromethyl)-8H-[1,4]oxazino[2,3-f]quinolin-8-one]
EC50 (human AR): 270 nM
AR Agonist CV-1 Cells Efficacy (human AR): 76%
AR Antagonist CV-1 Cells Efficacy (human AR): na (not active (i.e. efficacy of <20 and potency of >10,000 nM for the cotransfection assay)

C=CCN1c2ccc3[nH]c(=O)cc(C(F)(F)F)c3c2OC[C@H]1C(C)C [Compound 126, (3R)-4-Allyl-2,3,4,7-tetrahydro-3-isopropyl-10-(trifluoromethyl)-8H-[1,4]oxazino[2,3-f]quinolin-8-one]
EC50 (human AR): 35 nM

CN1CC(C)(C)Oc2c1ccc1[nH]c(=O)cc(C(F)(F)F)c21 [Compound 138, 2,3,4,7-Tetrahydro-2,2,4-trimethyl-10-(trifluoromethyl)-8H-[1,4]oxazino[2,3-f]quinolin-8-one]
EC50 (human AR): > 10000 nM
AR Agonist CV-1 Cells Efficacy (human AR): na (not active (i.e. efficacy of <20 and potency of >10,000 nM for the cotransfection assay)
AR Antagonist CV-1 Cells Efficacy (human AR): 90%

CC(C)(O)C(=O)Nc1ccc([N+](=O)[O-])c(C(F)(F)F)c1 [Flut, 2-hydroxyflutamide, reference compound]
EC50 (ER; agonist mode, read-out: ER Potency Agon): > 10000 nM
IC50 (ER; antagonist mode, read-out: ER Potency Antag): > 10000 nM

CC(=O)S[C@@H]1CC2=CC(=O)CC[C@]2(C)[C@H]2CC[C@@]3(C)[C@@H](CC[C@@]34CCC(=O)O4)[C@H]12 [Spir, spironolactone, reference compound]
EC50 (ER): > 10000 nM
IC50 (ER): > 10000 nM
